As usually defined, the IC50 is the midpoint of a concentration-inhibition curve.

The subject of test [1] is NMDA receptor. Nature of the test: Whole cell recording of NMDA-induced inward currents in cultured cortical neurons. It is filed as cell-based, mouse. Here is the method: Typical NMDA-induced inward currents (NMDA currents) were evoked by applying 300 μM NMDA to cortical neurons which were held at […]. Successive application of various concentrations of 2-Hydroxy-TTBA reduced the response elicited by 300 μM NMDA in a concentration-dependent manner (n=8).
Cortical neurons were treated with 100 μM 2-Hydroxy-TTBA, washed thoroughly, and then applied with 300 μM NMDA.
Whole cell recordings were performed on cortical cell cultures at room temperature as described [Seo et al., J. Pharmacol. Exp. Ther., 299:377-384 (2001)]. Typical NMDA-induced inward currents (NMDA currents) were evoked immediately after applying 300 μM NMDA to cultured cortical neurons which were held at −70 mV.

Test [2] can be described thus: DPPH free radical scavenging assay. It is filed as biochemical. To be noted: 100 μM DPPH in ethanol; absorption at 517 nm; 1-100 μM. As to the method: 2-Hydroxy-TTBA (●) or trolox (◯) was reacted with 100 uM 1,1-diphenyl-2-picrylhydrazil (DPPH, a stable free radical) dissolved in ethanol for […]. The radical scavenging activity was determined by measuring the decrease in DPPH levels at 517 nm. *, Significant difference from the vehicle control, p<0.05 using ANOVA and Student-Neuman-Keuls' test.
2-Hydroxy-TTS (●), 2-Hydroxy-TTA (◯), 2-Chloro-TTP (▾) or control (∇) was reacted with 100 uM DPPH dissolved in ethanol. The radical scavenging activity was determined by measuring the decrease in DPPH levels at 517 nm. *, Significant difference from the vehicle control, p<0.05 using ANOVA and Student-Neuman-Keuls' test.
To examine the free radical scavenging effects, 1-100 μM 2-Hydroxy-TTBA, 2-Hydroxy-TTA, 2-Hydroxy-TTS, 2-Chloro-TTP or trolox was reacted with 100 μM DPPH (2,2-diphenyl-1-picryl-hydrazyl radical), a stable free radical, dissolved in ethanol. After incubation for 30 min, relative decrease in DPPH absorption at 517 nm was measured by a spectrophotometer, mean ±SEM (n=3 test tubes per condition). *, Significant difference from the vehicle control (DPPH alone), p<0.05 using ANOVA and Student-Neuman-Keuls' test.
On the technique in general: DPPH is a stable violet radical that fades when it is reduced.

Test [3] has as its system ALS mice (G93A human SOD1 mutation). Nature of the test: Neuronal death in spinal cord of ALS transgenic mice (SOD1-G93A). It is filed as in vivo, mouse. As to the method: Bright field photomicrographs of spinal cord sections stained with eosin from amyotrophic lateral sclerosis (ALS) mice over expressing the mutant SOD1-G93A that received vehicle (A) or 2-Hydroxy-TTBA (B, 10 mg/kg/day through drinking water) for 8 weeks from the age of 2 months.
Degenerating neurons from FIG. 7a. were analyzed by counting viable neurons after staining with eosin in the dorsal and ventral horn of spinal cord from ALS mice treated with a vehicle (Control) or 2-Hydroxy-TTBA, mean ±S.E.M (n=5 animals for each condition). *, Significant difference from the vehicle control, p<0.05 using the independent t-test.
Transgenic mice with the G93A human SOD1 mutation (B6SJL-TgN(SOD1-G93A)1Gur), animal models of ALS (ALS mice), were obtained from Jackson Laboratories (ME, USA). 2-hydroxy-TTBA was administered to 2 month-old wild type and ALS transgenic mice through drinking water bottle (10 mg/kg per day) for 8 weeks. Animals were then euthanized and spinal cords processed for histological examination by staining with hematoxylin and eosin. Spinal motor neurons from ALS mice without being treated with 2-hydroxy-TTBA (control) underwent degeneration as evident by eosinophilic staining, which was reduced in ALS mice treated with 2-hydroxy-TTBA (FIG. 7a).
The number of degenerating neurons was analyzed by counting eosinophilic neurons in ventral horn (VH) and dorsal horn (DH).

Test [4] has as its system Sprague-dawley rats, four-vessel occlusion. The test is described as follows: CA1 neuronal cell death after transient forebrain ischemia. It is filed as in vivo, rat. To be noted: 50 mg/kg ip; 10 min four-vessel occlusion; analyzed 3 d later. Here is the method: Adult rats received transient global ischemia for 10 min, with intraperitoneal injections of vehicle (control) or 2-Hydroxy-TTBA (50 mg/kg) at 5 min after reperfusion. The number of degenerating neurons in the CA1 was analyzed 3 d later by counting viable neurons after staining with cresyl violet, mean ±S.E.M. *, Significant difference from the vehicle control, p<0.05 using the independent t-test.
Male adult Sprague-dawley rats (250-300 g) were anesthetized with chloral hydrate and subjected to four-vessel occlusion model (occlusion of both common carotid arteries and vertebral arteries) as previously described [Pulsinelli and Brierley, stroke 10: 267-272 (1979)].
Rats received four-vessel occlusion for 10 min followed by administration of saline (control) or 2-Hydroxy-TTBA (50 mg/kg, ip). Animals were euthanized 3 d later and processed for analysis of neuronal death in the CA1 field after staining with hematoxylin and eosin(mean ±SEM, N=12 rats/condition).

Molecules are shown by their SMILES. “Also recorded” adds a separate entry of the source. Read-outs that look alike come from different tables or passages of the source.

Regarding `O=C(O)c1cc(NCc2c(F)c(F)c(C(F)(F)F)c(F)c2F)ccc1O` [2-Hydroxy-TTBA, 2-hydroxy-5-(2,3,5,6-tetrafluoro-4-trifluoromethylbenzylamino)benzoic acid], the “effect on holding currents” value in test [1] (100 μM compound alone) was “had no effect on the holding currents”. Also, the “effect of pretreatment on response to subsequent 300 μM NMDA” value in test [1] (100 μM compound applied alone, then 300 μM NMDA, n=6) is reported as “did not influence NMDA-induced inward currents; also recorded: had little effect”. In addition, the “Hill coefficient of dose response relation to NMDA currents” value in test [1] (300 μM NMDA, neurons held at −60 mV, n=8) is recorded as 0.91. The IC50 in test [1] (300 μM NMDA, neurons held at −60 mV, n=8, read-out: IC50 for NMDA currents (FIG. 2a legend)) was approximately 35 µM; in test [1] (300 μM NMDA, neurons held at −70 mV, bath application, n=7-15 neurons/condition, read-out: IC50 for depression of NMDA-evoked currents), 30.6 ± 2.96 µM. For the same molecule, in test [2], the “reduction of DPPH levels” value is “reduced levels of DPPH at lower doses”. The “degeneration of spinal motor neurons (eosinophilic staining)” value in test [3] (10 mg/kg per day in drinking water for 8 weeks from 2 months of age) is given as “reduced”. Also, the “degeneration of dorsal and ventral horn neurons (count of eosinophilic neurons)” value in test [3] (10 mg/kg per day in drinking water for 8 weeks, n=5 animals) is “significantly prevented degeneration”. For the same molecule, the “delayed neuronal cell death in the CA1 areas” value in test [4] was “prevented delayed neuronal cell death”.

The values are drawn from US7511074B2, “Tetrafluorobenzyl derivatives and pharmaceutical composition for preventing and treating acute and chronic neurodegenerative diseases in central nervous system containing the same” (AmKor Pharma, Inc., priority 2002, dated 2009).
